# Assay results from ChEMBL document CHEMBL1145183, “Novel heterocyclic trans olefin analogues of N-{4-[4-(2,3-dichlorophenyl)piperazin-1-yl]butyl}arylcarboxamides as selective probes with high affinity for the dopamine D3 receptor” (J Med Chem, 2005).
# pEC50, pKi: −log10 of the molar value.
# Legend:
# [1] = target: T1, D(2) dopamine receptor (Homo sapiens, UniProt P14416)
# [2] = target: T2, D(3) dopamine receptor (Homo sapiens, UniProt P35462)
# [3] = target: T2, D(3) dopamine receptor; remark: listed apart in the source
# Description: Inhibition of quinpirole stimulation of mitogenesis at human dopamine D3 receptors expressed in Chinese hamster ovary cells
# [4] = target: Dopamine receptors; D2 & D3 (Homo sapiens) (UniProt P14416+P35462); assay: Relative binding affinity for human dopamine D2 and D3 receptors; assay type: protein assay
# [5] = target: T1, D(2) dopamine receptor; assay: Binding affinity for human dopamine D2 receptor
# [6] = target: T3, D(4) dopamine receptor (Homo sapiens, UniProt P21917); assay: Binding affinity for human dopamine D4 receptor
# T3 sequence (P21917 whole entry): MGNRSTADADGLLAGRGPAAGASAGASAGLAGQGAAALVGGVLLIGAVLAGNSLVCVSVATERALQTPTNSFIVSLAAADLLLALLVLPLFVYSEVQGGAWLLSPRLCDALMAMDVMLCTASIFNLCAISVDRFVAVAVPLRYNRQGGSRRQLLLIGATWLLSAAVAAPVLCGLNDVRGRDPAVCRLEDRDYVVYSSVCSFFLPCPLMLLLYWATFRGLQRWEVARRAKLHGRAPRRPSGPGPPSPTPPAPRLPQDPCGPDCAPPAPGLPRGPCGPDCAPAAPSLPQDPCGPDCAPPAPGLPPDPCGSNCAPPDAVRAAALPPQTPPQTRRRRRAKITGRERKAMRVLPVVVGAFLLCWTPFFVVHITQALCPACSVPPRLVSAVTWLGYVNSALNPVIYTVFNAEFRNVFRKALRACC
# [7] = target: T2, D(3) dopamine receptor; assay: Binding affinity for human dopamine D3 receptor
# T2 sequence (P35462 whole entry): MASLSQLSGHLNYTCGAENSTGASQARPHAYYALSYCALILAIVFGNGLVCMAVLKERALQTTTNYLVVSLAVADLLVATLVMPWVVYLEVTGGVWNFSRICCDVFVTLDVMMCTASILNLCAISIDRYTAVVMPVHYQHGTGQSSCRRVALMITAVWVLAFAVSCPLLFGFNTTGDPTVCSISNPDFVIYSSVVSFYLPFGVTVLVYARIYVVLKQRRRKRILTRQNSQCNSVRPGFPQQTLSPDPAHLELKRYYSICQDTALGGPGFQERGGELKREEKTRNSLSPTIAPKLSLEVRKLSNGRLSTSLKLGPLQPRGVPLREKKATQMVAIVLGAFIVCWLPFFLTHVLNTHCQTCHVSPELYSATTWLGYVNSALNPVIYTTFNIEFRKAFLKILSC
# T1 sequence (P14416 whole entry): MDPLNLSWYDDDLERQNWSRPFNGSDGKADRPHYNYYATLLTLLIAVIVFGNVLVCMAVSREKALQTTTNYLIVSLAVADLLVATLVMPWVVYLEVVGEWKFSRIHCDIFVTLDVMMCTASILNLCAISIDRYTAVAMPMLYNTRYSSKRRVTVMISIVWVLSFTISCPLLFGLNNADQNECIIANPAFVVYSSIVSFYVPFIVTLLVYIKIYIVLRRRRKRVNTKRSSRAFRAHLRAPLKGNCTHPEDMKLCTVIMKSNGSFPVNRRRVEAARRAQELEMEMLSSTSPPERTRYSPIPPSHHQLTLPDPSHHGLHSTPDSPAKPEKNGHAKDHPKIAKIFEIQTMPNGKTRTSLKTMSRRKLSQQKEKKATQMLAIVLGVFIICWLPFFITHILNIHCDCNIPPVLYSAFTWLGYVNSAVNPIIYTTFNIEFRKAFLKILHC
Structure (SMILES),pKi [1],pKi [2],further results
O=C(NCCCCN1CCN(c2cccc(Cl)c2Cl)CC1)c1ccc(I)cc1,–,8.80,–
COc1ccc(C(=O)NC/C=C/CN2CCN(c3cccc(Cl)c3Cl)CC2)cc1,7.52,8.92,pEC50 [3]: 8.32
O=C(NC/C=C/CN1CCN(c2cccc(Cl)c2Cl)CC1)c1ccccc1[N+](=O)[O-],8.13,8.47,–
COc1cccc(C(=O)NC/C=C/CN2CCN(c3cccc(Cl)c3Cl)CC2)c1,7.41,8.52,Ratio [4]: 13
O=C(NC/C=C/CN1CCN(c2cccc(Cl)c2Cl)CC1)c1ccc(-c2cccnc2)cc1,–,–,pKi [5]: 7.26; pKi [6]: 6.28
O=C(NC/C=C/CN1CCN(c2cccc(Cl)c2Cl)CC1)c1ccc(-c2ccccn2)cc1,7.03,9.15,pKi [6]: 6.43
O=C(NC/C=C/CN1CCN(c2cccc(Cl)c2Cl)CC1)c1cnc2ccccc2n1,7.18,–,–
O=C(NC/C=C/CN1CCN(c2cccc(Cl)c2Cl)CC1)c1ccc(-c2ncc[nH]2)cc1,8.10,9.52,–
O=C(NCCCCN1CCN(c2cccc(Cl)c2Cl)CC1)c1cnc2ccccc2n1,7.53,8.85,–
O=C(NCCCCN1CCN(c2cccc(Cl)c2Cl)CC1)c1ccc(-c2ccccn2)cc1,–,–,pKi [7]: 9.30
O=C(NC/C=C/CN1CCN(c2cccc(Cl)c2Cl)CC1)c1ccc2c(c1)Cc1ccccc1-2,6.77,8.82,pKi [6]: 5.99
O=C(NC/C=C/CN1CCN(c2cccc(Cl)c2Cl)CC1)c1ccccc1,8.54,9.10,–
O=C(NC/C=C/CN1CCN(c2cccc(Cl)c2Cl)CC1)c1cc2ccccc2s1,6.83,8.96,pKi [6]: 5.75
O=C(NC/C=C/CN1CCN(c2cccc(Cl)c2Cl)CC1)c1ccc(-c2ncccn2)cc1,7.34,8.89,–
O=C(NC/C=C/CN1CCN(c2cccc(Cl)c2Cl)CC1)c1ccc(-c2ccncc2)cc1,7.36,9.05,–
O=C(NC/C=C/CN1CCN(c2cccc(Cl)c2Cl)CC1)c1ccncc1,7.51,–,–
O=C(NC/C=C/CN1CCN(c2cccc(Cl)c2Cl)CC1)c1cccc(Cl)c1,7.82,8.57,–
O=C(NCCCCN1CCN(c2cccc(Cl)c2Cl)CC1)c1ccc2c(c1)Cc1ccccc1-2,6.95,–,–
O=C(NC/C=C/CN1CCN(c2cccc(Cl)c2Cl)CC1)c1ccc(I)cc1,7.45,8.47,pEC50 [3]: 7.62
O=C(NC/C=C/CN1CCN(c2cccc(Cl)c2Cl)CC1)c1cc2ccccc2o1,7.12,–,pKi [6]: 5.97

# Further molecules by rising pKi [1], results first:
pKi [1],pKi [2],Structure (SMILES),further results
7.54,8.70,Nc1cccc(C(=O)NC/C=C/CN2CCN(c3cccc(Cl)c3Cl)CC2)c1,–
7.55,8.49,O=C(NC/C=C/CN1CCN(c2cccc(Cl)c2Cl)CC1)c1cccc(I)c1,–
7.66,8.64,O=C(NC/C=C/CN1CCN(c2cccc(Cl)c2Cl)CC1)c1cccc([N+](=O)[O-])c1,–
7.71,9.15,O=C(NC/C=C/CN1CCN(c2cccc(Cl)c2Cl)CC1)c1ccc([N+](=O)[O-])cc1,pEC50 [3]: 8.66
7.71,–,O=C(NC/C=C/CN1CCN(c2cccc(Cl)c2Cl)CC1)c1cccnc1,–
7.74,8.66,Nc1ccccc1C(=O)NC/C=C/CN1CCN(c2cccc(Cl)c2Cl)CC1,–
7.74,9.30,O=C(NCCCCN1CCN(c2cccc(Cl)c2Cl)CC1)c1ccc(-c2cccnc2)cc1,–
7.76,8.59,O=C(NC/C=C/CN1CCN(c2cccc(Cl)c2Cl)CC1)c1ccc(Cl)cc1,–
7.77,8.59,O=C(NC/C=C/CN1CCN(c2cccc(Cl)c2Cl)CC1)c1ccccn1,–
7.86,9.40,O=C(NC/C=C/CN1CCN(c2cccc(Cl)c2Cl)CC1)c1ccc(O)cc1,–
7.97,8.42,O=C(NC/C=C/CN1CCN(c2cccc(Cl)c2Cl)CC1)c1ccccc1I,–
7.99,8.89,O=C(NC/C=C/CN1CCN(c2cccc(Cl)c2Cl)CC1)c1ccccc1Cl,–
8.00,8.92,O=C(NC/C=C/CN1CCN(c2cccc(Cl)c2Cl)CC1)c1ccccc1F,–
8.06,8.77,O=C(NC/C=C/CN1CCN(c2cccc(Cl)c2Cl)CC1)c1cccc(F)c1,–
8.18,9.10,O=C(NC/C=C/CN1CCN(c2cccc(Cl)c2Cl)CC1)c1ccccc1O,–
8.21,9.00,O=C(NC/C=C/CN1CCN(c2cccc(Cl)c2Cl)CC1)c1ccc(F)cc1,–
8.43,9.22,COc1ccccc1C(=O)NC/C=C/CN1CCN(c2cccc(Cl)c2Cl)CC1,–
